Measured values published in EPA's CvTdb concentration-time database.

How the values were obtained:
[1] = test system: Rat; experiment: concentration in heart after dosing; conditions: 1 h; dosed: Thiodiglycolic Acid; 20 mg/kg; iv; Male; Harlan Sprague Dawley
[2] = test system: Rat; experiment: concentration in thymus after dosing; conditions: dosed: Thiodiglycolic Acid, 20 mg/kg, iv
[3] = test system: Rat; experiment: concentration in liver after dosing; conditions: dosed: Thiodiglycolic Acid, 20 mg/kg, iv
[4] = test system: Rat; experiment: concentration in liver after dosing; conditions: 8 h; dosed: Thiodiglycolic Acid; 20 mg/kg; iv; Female; Harlan Sprague Dawley
[5] = test system: Rat; experiment: concentration in thymus after dosing; conditions: 20 min; dosed: Thiodiglycolic Acid; 20 mg/kg; iv; Female; Harlan Sprague Dawley
[6] = test system: Rat; experiment: concentration in plasma after dosing; conditions: dosed: Thiodiglycolic Acid, 20 mg/kg, iv
[7] = test system: Rat; experiment: concentration in liver after dosing; conditions: 40 min; dosed: Thiodiglycolic Acid; 20 mg/kg; iv; Male; Harlan Sprague Dawley
[8] = test system: Rat; experiment: concentration in heart after dosing; conditions: dosed: Thiodiglycolic Acid, 20 mg/kg, iv

O=C(O)CSCC(=O)O [Thiodiglycolic Acid]
Conditions	concentration in heart [ng/g]	concentration in liver [ng/g]	concentration in thymus [ng/g]
[1]	1930	–	–
[4]	–	940	–
[5]	–	–	8060
[7]	–	176000	–

Conditions	concentration in heart, [8] [ng/g]	concentration in liver, [3] [ng/g]	concentration in plasma, [6] [ng/mL]	concentration in thymus, [2] [ng/g]
1 h, Female, Harlan Sprague Dawley	1670	71500	8500	2560
1 h, Male, Harlan Sprague Dawley	1760	107000	1340	2750
2 h, Female, Harlan Sprague Dawley	1120	21800	1220	1650
2 h, Male, Harlan Sprague Dawley	1340	108000	751	1940
3 h, Female, Harlan Sprague Dawley	562	9460	520	1060
3 h, Male, Harlan Sprague Dawley	1040	50900	553	1370
4 h, Female, Harlan Sprague Dawley	414	2680	228	708
4 h, Male, Harlan Sprague Dawley	476	45400	332	939
5.333 h, Female, Harlan Sprague Dawley	232	2410	302	399
5.333 h, Male, Harlan Sprague Dawley	388	29400	247	715
6.667 h, Female, Harlan Sprague Dawley	238	2220	–	236
8 h, Female, Harlan Sprague Dawley	328	246	200	487
10 h, Female, Harlan Sprague Dawley	–	7570	–	215
10 h, Male, F344	362	4770	215	358
10 min, Female, Harlan Sprague Dawley	8480	75000	37500	8190
10 min, Male, F344	6870	148000	25600	10000
20 min, Female, F344	4000	198000	6700	3960
20 min, Female, Harlan Sprague Dawley	4770	11000	9230	4460
40 min, Female, Harlan Sprague Dawley	2650	49400	3520	3000
40 min, Male, Harlan Sprague Dawley	2660	190000	1820	2890
